DC50 data for 24 compounds are collected here from patent US20250074890A1, “CYANOPYRIDINE AND CYANOPYRIMIDINE BCL6 DEGRADERS” (DANA-FARBER CANCER INSTITUTE, INC., priority 2021, published 2025).

The structures appear in SMILES notation.

The assay has as its target T1, BCL6 (Homo sapiens, UniProt P41182).
T1 construct: Endogenous BCL6 was tagged with the 11-amino acid SmBiT through CRISPR/Cas9 gene editing; endogenous in cells; host or cells: Su-DHL-4 (CRISPR/Cas9 knock-in, single cell clone)
Nature of the assay: HiBiT cellular degradation assay in Su-DHL-4 cells. Type of assay: cell-based. Particulars: concentration to reach 50% degradation of endogenous SmBiT-tagged BCL6, 24 hours of compound treatment. How it is done:
DC50 (concentration to reach 50% degradation) values were determined from a cellular degradation assay (HiBiT, Promega™) in Su-DHL-4 cells (Table 1). Endogenous BCL6 was tagged with the 11-amino acid SmBiT through CRISPR/Cas9 gene editing and single cell clone selection. After 24 hours of compound treatment, cells were lysed and incubated with LgBiT protein to reconstitute intact nanoluciferase. Substrate was then added and relative luciferase units were measured. Degradation levels for each treatment were taken as a percentage compared to the control, 100% DMSO (Prism).
Background: HiBiT is a short tag that completes a luciferase, so light tracks the accessible tagged protein.
Consider `C[C@H]1C[C@@H](N)CN(c2nc(Nc3ccc4c(c3)c3c(c(=O)n4C)OCC(F)(F)[C@H](C4CC4)N3)c(Cl)cc2C#N)C1` (single isomer, unassigned) [Compound 24], for which the DC50 was determined as 30 nM.
Take `CNC(=O)COc1cc2cc(Nc3nc(N4C[C@@H](N)C(F)(F)[C@@H](C)C4)c(C#N)cc3Cl)ccc2n(CC2COC2)c1=O` (single isomer, unassigned) [Compound 42]: the DC50 turned out to be 71 nM.
The result for `C[C@H]1CN(c2nc(Nc3ccc4c(c3)n(CCC(C)(C)O)c(=O)n4C)c(Cl)cc2C#N)C[C@@H](N)C1(F)F` (single isomer, unassigned) [Compound 49] reads > 400 nM.
The result for `C[C@H]1CN(c2nc(Nc3ccc4c(c3)n(CCC(C)(C)O)c(=O)n4C)c(F)cc2C#N)C[C@@H](O)C1(F)F` (single isomer, unassigned) [Compound 83] reads > 400 nM.
Compound `CNC(=O)COc1cc2cc(Nc3nc(N4C[C@@H](C)C(F)(F)[C@@H](C)C4)c(C#N)cc3Cl)ccc2n(C)c1=O` [Compound 2, 2-((6-((3-Chloro-5-cyano-6-((3S,5R)-4,4-difluoro-3,5-dimethylpiperidin-1-yl)pyridin-2-yl)amino)-1-methyl-2-oxo-1,2-dihydroquinolin-3-yl)oxy)-N-methylacetamide] showed a DC50 of 6 nM.
As to `CNC(=O)COc1cc2cc(Nc3ncc(C#N)c(N4C[C@H](CCO)C(F)(F)[C@H](C)C4)n3)ccc2n(C)c1=O` [Compound 3, 2-((6-((5-Cyano-4-((3S,5R)-4,4-difluoro-3-(2-hydroxyethyl)-5-methylpiperidin-1-yl)pyrimidin-2-yl)amino)-1-methyl-2-oxo-1,2-dihydroquinolin-3-yl)oxy)-N-methylacetamide], the DC50 was 3 nM.
`CNC(=O)COc1cc2cc(Nc3nc(N4C[C@@H](C)C(F)(F)[C@@H](C)C4)c(C#N)cc3Cl)ccc2n(CC2CCO2)c1=O` (stereo partly drawn) [Compound 6, 2-((6-((3-Chloro-5-cyano-6-((3R,5S)-4,4-difluoro-3,5-dimethylpiperidin-1-yl)pyridin-2-yl)amino)-1-(oxetan-2-ylmethyl)-2-oxo-1,2-dihydroquinolin-3-yl)oxy)-N-methylacetamide] returned a DC50 of 13 nM.
With `CNC(=O)COc1cc2cc(Nc3nc(N4C[C@@H](C)C(F)(F)[C@@H](C)C4)c(C#N)cc3Cl)ccc2n(CC2COC2)c1=O` [Compound 7, 2-((6-((3-chloro-5-cyano-6-((3R,5S)-4,4-difluoro-3,5-dimethylpiperidin-1-yl)pyridin-2-yl)amino)-1-(oxetan-3-ylmethyl)-2-oxo-1,2-dihydroquinolin-3-yl)oxy)-N-methylacetamide], the DC50 is 5 nM.
For the compound `C[C@@H]1CN(c2nc(Nc3ccc4c(c3)cc(OCC3(C)COC3)c(=O)n4C)c(Cl)cc2C#N)C[C@H](C)C1(F)F` [Compound 9, 5-Chloro-2-((3R,5S)-4,4-difluoro-3,5-dimethylpiperidin-1-yl)-6-((1-methyl-3-((3-methyloxetan-3-yl)methoxy)-2-oxo-1,2-dihydroquinolin-6-yl)amino)nicotinonitrile], the DC50 was > 400 nM.
On to `CNC(=O)COc1cc2cc(Nc3nc(N4C[C@@H](C)C(F)(F)[C@@H](C)C4)c(C#N)cc3Cl)ccc2n(CCN(C)C)c1=O` [Compound 11, 2-((6-((3-Chloro-5-cyano-6-((3R,5S)-4,4-difluoro-3,5-dimethylpiperidin-1-yl)pyridin-2-yl)amino)-1-(2-(dimethylamino)ethyl)-2-oxo-1,2-dihydroquinolin-3-yl)oxy)-N-methylacetamide], for which it took 2 nM to reach half-maximal degradation (DC50).
`CNC(=O)COc1cc2cc(Nc3nc(N4C[C@@H](C)C(F)(F)[C@@H](C)C4)c(C#N)cc3Cl)ccc2n(CCCO)c1=O` [Compound 18, 2-((6-((3-Chloro-5-cyano-6-((3R,5S)-4,4-difluoro-3,5-dimethylpiperidin-1-yl)pyridin-2-yl)amino)-1-(3-hydroxypropyl)-2-oxo-1,2-dihydroquinolin-3-yl)oxy)-N-methylacetamide] had a DC50 of 5 nM.
On to `C[C@@H]1C[C@H](N)CN(c2nc(Nc3ccc4c(c3)c3c(c(=O)n4C)OCC(F)(F)[C@H](C4CC4)N3)c(Cl)cc2C#N)C1` [Compound 25, 2-((3S,5R)-3-Amino-5-methylpiperidin-1-yl)-5-chloro-6-(((S)-2-cyclopropyl-3,3-difluoro-7-methyl-6-oxo-1,2,3,4,6,7-hexahydro-[1,4]oxazepino[2,3-c]quinolin-10-yl)amino)nicotinonitrile], for which the DC50 was > 400 nM.
Take `C[C@H]1C[C@@H](N)CN(c2nc(Nc3ccc4c(c3)n(CCC(C)(C)O)c(=O)n4C)c(Cl)cc2C#N)C1` [Compound 35, 2-((3R,5S)-3-Amino-5-methylpiperidin-1-yl)-5-chloro-6-((3-(3-hydroxy-3-methylbutyl)-1-methyl-2-oxo-2,3-dihydro-1H-benzo[d]imidazol-5-yl)amino)nicotinonitrile]: the DC50 was > 400 nM.
For the compound `C[C@@H]1C[C@H](N)CN(c2nc(Nc3ccc4c(c3)n(CCC(C)(C)O)c(=O)n4C)c(Cl)cc2C#N)C1` [Compound 36, 2-((3S,5R)-3-amino-5-methylpiperidin-1-yl)-5-chloro-6-((3-(3-hydroxy-3-methylbutyl)-1-methyl-2-oxo-2,3-dihydro-1H-benzo[d]imidazol-5-yl)amino)nicotinonitrile], the half-maximal degradation concentration (DC50) was > 400 nM.
Regarding `C[C@@H]1CN(c2nc(Nc3ccc4c(c3)n(CCC(C)(C)O)c(=O)n4CC3COC3)c(Cl)cc2C#N)C[C@H](N)C1(F)F` [Compound 37, 2-((3S,5R)-3-Amino-4,4-difluoro-5-methylpiperidin-1-yl)-5-chloro-6-((3-(3-hydroxy-3-methylbutyl)-1-(oxetan-3-ylmethyl)-2-oxo-2,3-dihydro-1H-benzo[d]imidazol-5-yl)amino)nicotinonitrile], the 50% degradation concentration (DC50) came to 62 nM.
Consider `C[C@H]1CN(c2nc(Nc3ccc4c(c3)n(CCC(C)(C)O)c(=O)n4CC3COC3)c(Cl)cc2C#N)C[C@@H](N)C1(F)F` [Compound 38, 2-((3R,5S)-3-Amino-4,4-difluoro-5-methylpiperidin-1-yl)-5-chloro-6-((3-(3-hydroxy-3-methylbutyl)-1-(oxetan-3-ylmethyl)-2-oxo-2,3-dihydro-1H-benzo[d]imidazol-5-yl)amino)nicotinonitrile], for which the DC50 is > 400 nM.
For `CNC(=O)COc1cc2cc(Nc3nc(N4C[C@@H](C)C[C@@H](N)C4)c(C#N)cc3Cl)ccc2n(C)c1=O` [Compound 39, 2-((6-((6-((3R,5S)-3-Amino-5-methylpiperidin-1-yl)-3-chloro-5-cyanopyridin-2-yl)amino)-1-methyl-2-oxo-1,2-dihydroquinolin-3-yl)oxy)-N-methylacetamide] the value was 41 nM.
As to `CNC(=O)COc1cc2cc(Nc3nc(N4C[C@H](C)C[C@H](N)C4)c(C#N)cc3Cl)ccc2n(C)c1=O` [Compound 40, 2-((6-((6-((3S,5R)-3-Amino-5-methylpiperidin-1-yl)-3-chloro-5-cyanopyridin-2-yl)amino)-1-methyl-2-oxo-1,2-dihydroquinolin-3-yl)oxy)-N-methylacetamide], the DC50 is > 400 nM.
Turning to `CNC(=O)COc1cc2cc(Nc3nc(N4C[C@@H](C)C(F)(F)[C@@H](N)C4)c(C#N)cc3Cl)ccc2n(CC2COC2)c1=O` [Compound 41, 2-((6-((6-((3S,5R)-3-Amino-4,4-difluoro-5-methylpiperidin-1-yl)-3-chloro-5-cyanopyridin-2-yl)amino)-1-(oxetan-3-ylmethyl)-2-oxo-1,2-dihydroquinolin-3-yl)oxy)-N-methylacetamide], half-maximal degradation (DC50) was put at 10 nM.
Consider `CNC(=O)COc1cc2cc(Nc3nc(N4C[C@@H](C)C(F)(F)[C@@H](N)C4)c(C#N)cc3Cl)ccc2n(C)c1=O` [Compound 43, 2-((6-((6-((3S,5R)-3-Amino-4,4-difluoro-5-methylpiperidin-1-yl)-3-chloro-5-cyanopyridin-2-yl)amino)-1-methyl-2-oxo-1,2-dihydroquinolin-3-yl)oxy)-N-methylacetamide], for which the DC50 amounted to 10 nM. That is a double-digit nanomolar value.
The compound `CNC(=O)COc1cc2cc(Nc3nc(N4C[C@@H](N)C(F)(F)[C@@H](C)C4)c(C#N)cc3Cl)ccc2n(C)c1=O` [Compound 44, 2-((6-((6-((3R,5S)-3-amino-4,4-difluoro-5-methylpiperidin-1-yl)-3-chloro-5-cyanopyridin-2-yl)amino)-1-methyl-2-oxo-1,2-dihydroquinolin-3-yl)oxy)-N-methylacetamide] came in with a DC50 of 70 nM. This DC50 lies about 7-fold higher than the previous one.
For `CNC(=O)COc1cc2cc(Nc3nc(N4C[C@@H](C)[C@@H](F)[C@@H](C)C4)c(C#N)cc3Cl)ccc2n(C)c1=O` [Compound 45, 2-((6-((3-Chloro-5-cyano-6-((3R,4S,5S)-4-fluoro-3,5-dimethylpiperidin-1-yl)pyridin-2-yl)amino)-1-methyl-2-oxo-1,2-dihydroquinolin-3-yl)oxy)-N-methylacetamide], the 50% degradation concentration (DC50) was found to be 3 nM.
As to `CNC(=O)COc1cc2cc(Nc3nc(N4C[C@@H](C)[C@@H](O)[C@@H](C)C4)c(C#N)cc3Cl)ccc2n(C)c1=O` [Compound 46, 2-((6-((3-Chloro-5-cyano-6-((3R,4s,5S)-4-hydroxy-3,5-dimethylpiperidin-1-yl)pyridin-2-yl)amino)-1-methyl-2-oxo-1,2-dihydroquinolin-3-yl)oxy)-N-methylacetamide], the DC50 turned out to be 6 nM. Compared with the last compound, the DC50 is about 2-fold higher.
As for `CNC(=O)COc1cc2cc(Nc3nc(N4C[C@@H](C)[C@H](O)[C@@H](C)C4)c(C#N)cc3Cl)ccc2n(C)c1=O` [Compound 47, 2-((6-((3-Chloro-5-cyano-6-((3R,4r,5S)-4-hydroxy-3,5-dimethylpiperidin-1-yl)pyridin-2-yl)amino)-1-methyl-2-oxo-1,2-dihydroquinolin-3-yl)oxy)-N-methylacetamide], the DC50 stood at 11 nM.

What is called DC50 is the concentration at which degradation of the target reaches its halfway point.
